Experimental data: patent US11066369B2, “N-(pyridin-2-yl)pyridine-sulfonamide derivatives and their use in the treatment of disease” (Novartis AG, priority 2016, dated 2021)

Experiments:
delF508-CFTR = target: T1, delF508-CFTR (Homo sapiens, UniProt P13569, DEL508-508); test: Measurement of delF508-CFTR functional activity in primary human bronchial epithelial cells (HBECs) using Multi-Transepithelial Clamp Circuit (MTECC-24) assay; format: cell-based; conditions: primary CF HBECs; for MTECC24 CFHBEC- Amax %: test compound added 24h before assay plus potentiator, relative to reference combination (2 μM corrector + 0.5 μM potentiator); for EC50: test compound added 24h before assay, in the presence of potentiator, mean of at least two replicates, read-out: MTECC24 CFHBEC- EC50
T1 construct: functional activity of the CFTR channel (Chloride ion transport) in patient derived primary human bronchial epithelial cells; host or cells: patient-derived primary human bronchial epithelial cells (delF508-CFTR)
T1 sequence (P13569 with tags, fused parts or gaps DEL508-508): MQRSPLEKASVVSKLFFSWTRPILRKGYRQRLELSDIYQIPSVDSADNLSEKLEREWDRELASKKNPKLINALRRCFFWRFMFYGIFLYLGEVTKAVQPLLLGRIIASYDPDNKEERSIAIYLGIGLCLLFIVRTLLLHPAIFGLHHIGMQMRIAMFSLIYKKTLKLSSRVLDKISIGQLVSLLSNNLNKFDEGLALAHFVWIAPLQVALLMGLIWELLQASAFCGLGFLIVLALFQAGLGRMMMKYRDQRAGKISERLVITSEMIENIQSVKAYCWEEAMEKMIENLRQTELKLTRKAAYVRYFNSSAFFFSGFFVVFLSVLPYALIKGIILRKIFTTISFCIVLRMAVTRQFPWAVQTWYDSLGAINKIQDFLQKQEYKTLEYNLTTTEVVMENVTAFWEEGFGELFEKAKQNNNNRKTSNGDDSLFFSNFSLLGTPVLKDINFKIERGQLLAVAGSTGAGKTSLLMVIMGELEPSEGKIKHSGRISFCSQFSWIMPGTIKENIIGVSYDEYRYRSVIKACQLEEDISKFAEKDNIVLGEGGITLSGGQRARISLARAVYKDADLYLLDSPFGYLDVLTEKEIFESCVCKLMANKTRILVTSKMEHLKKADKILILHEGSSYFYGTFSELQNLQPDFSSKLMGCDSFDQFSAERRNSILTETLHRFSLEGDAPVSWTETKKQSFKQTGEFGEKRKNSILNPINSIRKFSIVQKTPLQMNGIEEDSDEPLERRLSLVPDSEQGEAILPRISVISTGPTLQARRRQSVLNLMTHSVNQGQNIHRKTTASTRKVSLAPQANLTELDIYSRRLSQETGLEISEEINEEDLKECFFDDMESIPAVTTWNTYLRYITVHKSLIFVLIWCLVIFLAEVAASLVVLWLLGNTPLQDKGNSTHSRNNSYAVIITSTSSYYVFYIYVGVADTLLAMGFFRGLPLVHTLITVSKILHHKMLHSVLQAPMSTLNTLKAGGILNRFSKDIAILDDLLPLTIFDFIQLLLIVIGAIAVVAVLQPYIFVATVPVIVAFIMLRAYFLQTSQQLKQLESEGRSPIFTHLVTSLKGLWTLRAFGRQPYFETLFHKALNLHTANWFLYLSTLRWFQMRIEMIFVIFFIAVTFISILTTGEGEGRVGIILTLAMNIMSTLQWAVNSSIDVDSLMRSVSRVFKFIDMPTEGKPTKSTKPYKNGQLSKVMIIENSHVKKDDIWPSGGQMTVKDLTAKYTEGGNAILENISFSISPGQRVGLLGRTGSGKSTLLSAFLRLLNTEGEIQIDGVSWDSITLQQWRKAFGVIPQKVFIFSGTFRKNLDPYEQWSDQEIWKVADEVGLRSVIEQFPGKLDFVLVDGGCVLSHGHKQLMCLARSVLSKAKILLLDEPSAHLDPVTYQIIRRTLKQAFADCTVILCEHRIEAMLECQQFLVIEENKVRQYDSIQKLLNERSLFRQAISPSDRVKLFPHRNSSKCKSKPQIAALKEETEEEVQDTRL
Method in brief: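 Patient-derived primary delF508-CFTR HBECs, differentiated at air-liquid interface ~2 weeks, treated basolaterally with compound for 24 h, then apical and basolateral compound in HEPES pH 7.4 assay medium. Equivalent short-circuit current (Ieq) recorded on MTECC-24 with sequential amiloride, forskolin, potentiator and INH-172; normalized to 0.1% DMSO, EC50 from curve fit.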

[1] = target: T2, horseradish peroxidase (HRP) tagged delF508-CFTR (Homo sapiens, UniProt P13569, DEL508-508); test: Measurement of delF508-CFTR-HRP surface expression in CFBE41o- cells; format: cell-based; conditions: delF508-CFTR-HRP surface expression, CFBE41o- cells; for Emax: read-out: DelF508-CFTR-HRP Amax %; for EC50: read-out: DelF508-CFTR-HRP EC50;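 as to DelF508-CFTR-HRP Amax %: percent efficacy relative to reference corrector lumacaftor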
T2 construct: expressed in transfected cells
T2 sequence (P13569 with tags, fused parts or gaps DEL508-508): as above
Method in brief: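 CFBE41o- bronchial epithelial cells stably expressing delF508-CFTR with HRP in the fourth extracellular loop; expression induced 48h with 500 ng/mL doxycycline, then compounds added (top 10 μM, 10-point 3-fold series, ≤0.5% DMSO) for 24h at 37° C. Surface HRP measured by luminescence with cell-impermeant substrate; EC50 from logistic fit of triplicates, plate-normalized to lowest concentration; efficacy also relative to a reference corrector.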

Row | Compound | MTECC24 CFHBEC- Amax % (delF508-CFTR) [%] | EC50 (delF508-CFTR) [nM] | Emax [1] [%] | EC50 [1] [nM]
1 | O=S(=O)(Nc1ccc(C(F)(F)F)c(-c2ccccc2C(F)(F)F)n1)c1cccc(N2CC(O)C2)n1 [Example 224, 6-(3-hydroxyazetidin-1-yl)-N-(5-(trifluoromethyl)-6-(2-(trifluoromethyl)phenyl)pyridin-2-yl)pyridine-2-sulfonamide] | 63.9 | 4.9 | 499 | 1380
2 | O=S(=O)(Nc1ccc(C(F)(F)F)c(-c2ccc(F)cc2Cl)n1)c1cccc(N2CC(O)C2)n1 [Example 225, N-(6-(2-chloro-4-fluorophenyl)-5-(trifluoromethyl)pyridin-2-yl)-6-(3-hydroxyazetidin-1-yl)pyridine-2-sulfonamide] | 87.7 | 17.6 | 361 | 2740
3 | COc1ccc(Cl)c(-c2nc(NS(=O)(=O)c3cccc(N4CC(O)C4)n3)ccc2C(F)(F)F)c1 [Example 226, N-(6-(2-chloro-5-methoxyphenyl)-5-(trifluoromethyl)pyridin-2-yl)-6-(3-hydroxyazetidin-1-yl)pyridine-2-sulfonamide] | 83.5 | 12.9 | 721 | 2400
4 | O=S(=O)(Nc1ccc(Cl)c(-c2ccccc2Cl)n1)c1cccc(N2CC(O)C2)n1 [Example 227, N-(5-chloro-6-(2-chlorophenyl)pyridin-2-yl)-6-(3-hydroxyazetidin-1-yl)pyridine-2-sulfonamide] | 104.9 | 49.1 | 403 | 2670
5 | COc1ccc(Cl)c(-c2nc(NS(=O)(=O)c3cccc(N4CC(O)C4)n3)ccc2Cl)c1 [Example 228, N-(5-chloro-6-(2-chloro-5-methoxyphenyl)pyridin-2-yl)-6-(3-hydroxyazetidin-1-yl)pyridine-2-sulfonamide] | 87.0 | 38.1 | 405 | 2990
6 | O=S(=O)(Nc1ccc(Cl)c(-c2cccc(F)c2Cl)n1)c1cccc(N2CC(O)C2)n1 [Example 229, N-(5-chloro-6-(2-chloro-3-fluorophenyl)pyridin-2-yl)-6-(3-hydroxyazetidin-1-yl)pyridine-2-sulfonamide] | 69.0 | 53.3 | 341 | 4290
7 | O=S(=O)(Nc1ccc(C(F)(F)F)c(-c2cccc(F)c2Cl)n1)c1cccc(N2CC(O)C2)n1 [Example 230, N-(6-(2-chloro-3-fluorophenyl)-5-(trifluoromethyl)pyridin-2-yl)-6-(3-hydroxyazetidin-1-yl)pyridine-2-sulfonamide] | 60.6 | 21.1 | 513 | 2940
8 | Cc1cccc(C)c1-c1nc(NS(=O)(=O)c2cccc(N3CC(O)C3)n2)ccc1Cl [Example 231, N-(5-chloro-6-(2,6-dimethylphenyl)pyridin-2-yl)-6-(3-hydroxyazetidin-1-yl)pyridine-2-sulfonamide] | 71.8 | 20.6 | 465 | 1160
9 | Cc1c(F)cccc1-c1nc(NS(=O)(=O)c2cccc(N3CC(O)C3)n2)ccc1Cl [Example 232, N-(5-chloro-6-(3-fluoro-2-methylphenyl)pyridin-2-yl)-6-(3-hydroxyazetidin-1-yl)pyridine-2-sulfonamide] | 72.3 | 31.9 | 349 | 1700
10 | Cc1ccccc1-c1nc(NS(=O)(=O)c2cccc(N3CC(O)C3)n2)ccc1C(F)(F)F [Example 233, 6-(3-hydroxyazetidin-1-yl)-N-(6-(o-tolyl)-5-(trifluoromethyl)pyridin-2-yl)pyridine-2-sulfonamide] | 85.3 | 5.2 | 586 | 1530
11 | Cc1ccc(F)cc1-c1nc(NS(=O)(=O)c2cccc(N3CC(O)C3)n2)ccc1Cl [Example 234, N-(5-chloro-6-(5-fluoro-2-methylphenyl)pyridin-2-yl)-6-(3-hydroxyazetidin-1-yl)pyridine-2-sulfonamide] | 84.0 | 11.3 | 513 | 1930
12 | Cc1ccc(F)cc1-c1nc(NS(=O)(=O)c2cccc(N3CC(O)(CO)C3)n2)ccc1Cl [Example 235, N-(5-chloro-6-(5-fluoro-2-methylphenyl)pyridin-2-yl)-6-(3-hydroxy-3-(hydroxymethyl)azetidin-1-yl)pyridine-2-sulfonamide] | 57.6 | 182 | 203 | 1970
13 | CC1(C(=O)O)CCN(c2cccc(S(=O)(=O)Nc3ccc(C(F)(F)F)c(-c4ccccc4C4CC4)n3)n2)CC1 [Example 237, 1-(6-(N-(6-(2-cyclopropylphenyl)-5-(trifluoromethyl)pyridin-2-yl)sulfamoyl)pyridin-2-yl)-4-methylpiperidine-4-carboxylic Acid] | 55.4 | 4.3 | 544 | 1460
14 | CC1(C(=O)O)CCN(c2cccc(S(=O)(=O)Nc3ccc(C(F)(F)F)c(-c4ccccc4Cl)n3)n2)CC1 [Example 238, 1-(6-(N-(6-(2-chlorophenyl)-5-(trifluoromethyl)pyridin-2-yl)sulfamoyl)pyridin-2-yl)-4-methylpiperidine-4-carboxylic Acid] | 59.0 | 19.6 | 426 | 3460
15 | COc1ccc(Cl)c(-c2nc(NS(=O)(=O)c3cccc(N4CCC(C)(C(=O)O)CC4)n3)ccc2C(F)(F)F)c1 [Example 241, 1-(6-(N-(6-(2-chloro-5-methoxyphenyl)-5-(trifluoromethyl)pyridin-2-yl)sulfamoyl)pyridin-2-yl)-4-methylpiperidine-4-carboxylic Acid] | 48.9 | 12.4 | 510 | 2890
16 | CC1(C(=O)O)CCN(c2cccc(S(=O)(=O)Nc3ccc(C(F)(F)F)c(-c4cccc(F)c4Cl)n3)n2)CC1 [Example 242, 1-(6-(N-(6-(2-chloro-3-fluorophenyl)-5-(trifluoromethyl)pyridin-2-yl)sulfamoyl)pyridin-2-yl)-4-methylpiperidine-4-carboxylic Acid] | 63.2 | 20.3 | 468 | 2920
17 | CC1(C(=O)O)CCN(c2cccc(S(=O)(=O)Nc3ccc(Cl)c(-c4cccc(F)c4Cl)n3)n2)CC1 [Example 245, 1-(6-(N-(5-chloro-6-(2-chloro-3-fluorophenyl)pyridin-2-yl)sulfamoyl)pyridin-2-yl)-4-methylpiperidine-4-carboxylic Acid] | 48.0 | 43.1 | 246 | 3440
18 | COC(=O)C1CCN(c2cccc(S(=O)(=O)Nc3ccc(Cl)c(-c4c(C)cccc4C)n3)n2)CC1 [Example 246, methyl 1-(6-(N-(5-chloro-6-(2,6-dimethylphenyl)pyridin-2-yl)sulfamoyl)pyridin-2-yl)piperidine-4-carboxylate] | 56.3 | 51 | 875 | 1790
19 | Cc1cccc(C)c1-c1nc(NS(=O)(=O)c2cccc(N3CCC(C(=O)O)CC3)n2)ccc1Cl [Example 247, 1-(6-(N-(5-chloro-6-(2,6-dimethylphenyl)pyridin-2-yl)sulfamoyl)pyridin-2-yl)piperidine-4-carboxylic Acid] | 57.0 | 191 | 493 | 3090
20 | CCC1(C(=O)O)CCN(c2cccc(S(=O)(=O)Nc3ccc(Cl)c(-c4c(C)cccc4C)n3)n2)CC1 [Example 248, 1-(6-(N-(5-chloro-6-(2,6-dimethylphenyl)pyridin-2-yl)sulfamoyl)pyridin-2-yl)-4-ethylpiperidine-4-carboxylic Acid] | 68.2 | 6.6 | 568 | 1610
21 | CCOC(=O)C1(C)CCN(c2cccc(S(=O)(=O)Nc3ccc(Cl)c(-c4c(C)cccc4C)n3)n2)CC1 [Example 249, ethyl 1-(6-(N-(5-chloro-6-(2,6-dimethylphenyl)pyridin-2-yl)sulfamoyl)pyridin-2-yl)-4-methylpiperidine-4-carboxylate] | 79.6 | 6.7 | – | 1520
22 | Cc1cccc(C)c1-c1nc(NS(=O)(=O)c2cccc(N3CCC(C)(C(=O)O)CC3)n2)ccc1Cl [Example 250, 1-(6-(N-(5-chloro-6-(2,6-dimethylphenyl)pyridin-2-yl)sulfamoyl)pyridin-2-yl)-4-methylpiperidine-4-carboxylic Acid] | 59.4 | 11 | 744 | 1830
